Data: publication PMC8699473, “An Easily Expandable Multi-Drug LC-MS Assay for the Simultaneous Quantification of 57 Oral Antitumor Drugs in Human Plasma” (Cancers, 2021)

Columns and labels:
[1] = 244 plasma samples; cited from earlier work
[2] = Reference trough level (cmin) at steady state; assay type: in vivo, human; conditions: minimum steady-state plasma concentration, calculated based on cmax; ref supplement [7], [2,5,24], [51]
[3] = human
[4] = human; remark: listed apart in the source

C[C@]12CC[C@H](O)CC1=CC[C@@H]1[C@@H]2CC[C@]2(C)C(c3cccnc3)=CC[C@@H]12 [Abiraterone]
average plasma concentration [1]: 9.3 ng/mL | range of plasma concentration [1]: 2.0 to 49.8 ng/mL

O=C1CN2Cc3c(ccc(Cl)c3Cl)N=C2N1 [Anagrelide]
cmin [2]: 1.5 ng/mL

Cc1ccc(C(=O)Nc2ccc(CN3CCN(C)CC3)c(C(F)(F)F)c2)cc1C#Cc1cnc2cccnn12 [Ponatinib]
Short-time stability (1h, 56°C) Accuracy [%] [3]: 30.7% | Short-time stability (24h, 4°C, without daylight) Accuracy [%] [3]: 95.7% | Short-time stability (24h, RT, with daylight) Accuracy [%] [3]: 89.6% | Short-time stability (24h, RT, without daylight) Accuracy [%] [3]: 91.7% | Long-term stability, 1 month, -20°C Accuracy [%] ([4]; both): 96.0% | Long-term stability, 1 month, -80°C Accuracy [%] ([4]; both): 92.6% | Long-term stability, 2 month, -20°C Accuracy [%] ([4]; both): 87.7% | Long-term stability, 2 month, -80°C Accuracy [%] ([4]; both): 99.1% | Long-term stability, 3 month, -20°C Accuracy [%] ([4]; both): 91.3% | Long-term stability, 3 month, -80°C Accuracy [%] ([4]; both): 96.8% | Long-term stability, 6 weeks, 4°C, without daylight Accuracy [%] [4]: 83.5%
